Source: US20110237436A1, “Hydrate and anhydrous crystal form of the sodium salt of 2-iodo-N-[(4-methoxy-6-methyl-1,3,5-triazin-2-yl)carbamoyl]benzenesulfonamide, process for preparation thereof and use thereof as herbicides and plant growth regulators” (BAYER CROPSCIENCE AG, priority 2010, published 2011)

Legend:
[1] = Stability tests: storage of oil dispersions of the active ingredient; format: physicochemical
From the text: The oil dispersions described were produced analogously to DE 19951427.

[2] = Practical testing of suspension formulations; format: physicochemical; conditions: effects occur spontaneously or over a longer period
From the text: The compound of the formula (I) known, for example, from WO 2009/053058 (compound I-2 in table 1 therein) has herbicidal properties and is suitable for the production of crop protection compositions which can be employed for weed control. […] User-friendly administration forms are, for example, suspension formulations or solid formulations in which the compound of the formula (I) is present in finely ground, solid form. […] There may, for example, be precipitation, crystal growth or solidification, such that the suspension formulation becomes unusable. These effects can occur spontaneously or over a longer period and cannot be foreseen.

[3] = in the course of production of oil dispersions or storage at room temperature, within hours or a few days
[4] = oil dispersion produced analogously to DE 19951427, storage at different temperatures for several weeks

Row | SMILES | change in viscosity of the oil dispersions [1, 3] | precipitation or crystallization of the active ingredient in the oil dispersion [1, 3] | physical stability of suspension formulations [2] | change in the viscosity of the oil dispersions [1, 4] | signs of precipitation or crystallization of the active ingredient in the oil dispersion [1, 4]
1 | COc1nc(C)nc(NC(=O)[N-]S(=O)(=O)c2ccccc2I)n1.[Na+] [amorphous sodium salt, sodium salt of 2-iodo-N-[(4-methoxy-6-methyl-1,3,5-triazin-2-yl)carbamoyl]benzenesulfonamide] | significant rises in viscosity, up to and including complete solidification | precipitation or crystallization of the active ingredient | physically unstable formulations |  | 
2 | COc1nc(C)nc(NC(=O)[N-]S(=O)(=O)c2ccccc2I)n1.[Na+] [hydrate, hydrate of the sodium salt of 2-iodo-N-[(4-methoxy-6-methyl-1,3,5-triazin-2-yl)carbamoyl]benzenesulfonamide] |  |  |  | Nor was any change found in the viscosity | did not exhibit any signs of precipitation or crystallization of the active ingredient
